# Results as given in ChEMBL document CHEMBL3885861, “Open TG-GATES”.
# Species on record: Rattus norvegicus
# Assay: Open TG-GATES - Regimen: Single
# Format: toxicity, organism-based, Sprague-Dawley
# Parameters: regimen Single, gender Male, age 6 weeks
# Settings: in vivo, po, 15 mg/kg, route gavage, dose level Low; for APTT / Bas / Eos / Fbg / Hb / Ht / Lym / MCH / MCHC / MCV / Mono / Neu / PT / Plat / RBC / Ret / WBC: tissue Blood; for KIDNEY_L / KIDNEY_R / KIDNEY_TOTAL: tissue Kidney; for LIVER: tissue Liver; for A/G / ALP / ALT / AST / BUN / CRE / Ca / Cl / DBIL / GLC / IP / K / LDH / Na / PL / RALB / TBIL / TC / TG / TP / gamma-GTP: tissue Plasma
structure (smiles),measurement,setting,value
CC(C)C(=O)Nc1ccc([N+](=O)[O-])c(C(F)(F)F)c1 [FLUTAMIDE],TERMINAL_BW,3 h,209 g
same,APTT,3 h,19 s
same,Bas,3 h,0%
same,Eos,3 h,0.8%
same,Fbg,3 h,219.6 mg/dL
same,Hb,3 h,13.5 g/dL
same,Ht,3 h,39.7%
same,Lym,3 h,80%
same,MCH,3 h,22 pg
same,MCHC,3 h,33.9%
same,MCV,3 h,64.6 fL
same,Mono,3 h,3%
same,Neu,3 h,14.6%
same,PT,3 h,12.6 s
same,Plat,3 h,128.6 x10_4/uL
same,RBC,3 h,615.6 x10_4/ul
same,Ret,3 h,7.5%
same,WBC,3 h,110 x10_2/uL
same,KIDNEY_L,3 h,0.9 g
same,KIDNEY_R,3 h,0.9 g
same,KIDNEY_TOTAL,3 h,1.8 g
same,LIVER,3 h,9.3 g
same,A/G,3 h,1.7
same,ALP,3 h,1106 IU/L
same,ALT,3 h,39 IU/L
same,AST,3 h,69.6 IU/L
same,BUN,3 h,12 mg/dL
same,CRE,3 h,0.4 mg/dL
same,Ca,3 h,11 mg/dL
same,Cl,3 h,103 meq/L
same,DBIL,3 h,0.2 mg/dL
same,GLC,3 h,212.6 mg/dL
same,IP,3 h,9.8 mg/dL
same,K,3 h,3.7 meq/L
same,LDH,3 h,187.2 IU/L
same,Na,3 h,140.4 meq/L
same,PL,3 h,177.2 mg/dL
same,RALB,3 h,3.5 g/dL
same,TBIL,3 h,0.3 mg/dL
same,TC,3 h,87.8 mg/dL
same,TG,3 h,127 mg/dL
same,TP,3 h,5.6 g/dL
same,gamma-GTP,3 h,1.2 IU/L
same,TERMINAL_BW,6 h,207.2 g
same,APTT,6 h,19.3 s
same,Bas,6 h,0%
same,Eos,6 h,0.8%
same,Fbg,6 h,228.6 mg/dL
same,Hb,6 h,13.3 g/dL
same,Ht,6 h,39.1%
same,Lym,6 h,78.2%
same,MCH,6 h,21.8 pg
same,MCHC,6 h,34%
same,MCV,6 h,63.9 fL
same,Mono,6 h,3.6%
same,Neu,6 h,16.8%
same,PT,6 h,12.7 s
same,Plat,6 h,126.9 x10_4/uL
same,RBC,6 h,611.2 x10_4/ul
same,Ret,6 h,7.5%
same,WBC,6 h,103.4 x10_2/uL
same,KIDNEY_L,6 h,0.9 g
same,KIDNEY_R,6 h,0.9 g
same,KIDNEY_TOTAL,6 h,1.8 g
same,LIVER,6 h,9.3 g
same,A/G,6 h,1.7
same,ALP,6 h,1000.8 IU/L
same,ALT,6 h,37 IU/L
same,AST,6 h,69.6 IU/L
same,BUN,6 h,8.8 mg/dL
same,CRE,6 h,0.3 mg/dL
same,Ca,6 h,10.6 mg/dL
same,Cl,6 h,103.2 meq/L
same,DBIL,6 h,0.1 mg/dL
same,GLC,6 h,194.8 mg/dL
same,IP,6 h,9.7 mg/dL
same,K,6 h,4 meq/L
same,LDH,6 h,154 IU/L
same,Na,6 h,140 meq/L
same,PL,6 h,159.2 mg/dL
same,RALB,6 h,3.5 g/dL
same,TBIL,6 h,0.2 mg/dL
same,TC,6 h,88.2 mg/dL
same,TG,6 h,53.8 mg/dL
same,TP,6 h,5.6 g/dL
same,gamma-GTP,6 h,1.2 IU/L
same,TERMINAL_BW,9 h,204.9 g
same,APTT,9 h,18 s
same,Bas,9 h,0%
same,Eos,9 h,1%
same,Fbg,9 h,213.6 mg/dL
same,Hb,9 h,13.6 g/dL
same,Ht,9 h,39.8%
same,Lym,9 h,77.2%
same,MCH,9 h,21.8 pg
same,MCHC,9 h,34.2%
same,MCV,9 h,63.6 fL
same,Mono,9 h,3.6%
same,Neu,9 h,17.6%
same,PT,9 h,13 s
same,Plat,9 h,121.6 x10_4/uL
same,RBC,9 h,624.8 x10_4/ul
same,Ret,9 h,7.7%
same,WBC,9 h,91.2 x10_2/uL
same,KIDNEY_L,9 h,0.9 g
same,KIDNEY_R,9 h,0.9 g
same,KIDNEY_TOTAL,9 h,1.9 g
same,LIVER,9 h,8.4 g
same,A/G,9 h,1.6
same,ALP,9 h,967.8 IU/L
same,ALT,9 h,31.8 IU/L
same,AST,9 h,62.2 IU/L
same,BUN,9 h,10.6 mg/dL
same,CRE,9 h,0.3 mg/dL
same,Ca,9 h,10.3 mg/dL
same,Cl,9 h,103.8 meq/L
same,DBIL,9 h,0.082 mg/dL
same,GLC,9 h,207.8 mg/dL
same,IP,9 h,9.8 mg/dL
same,K,9 h,3.7 meq/L
same,LDH,9 h,182.2 IU/L
same,Na,9 h,141.8 meq/L
same,PL,9 h,131.4 mg/dL
same,RALB,9 h,3.4 g/dL
same,TBIL,9 h,0.1 mg/dL
same,TC,9 h,69.8 mg/dL
same,TG,9 h,45.4 mg/dL
same,TP,9 h,5.6 g/dL
same,gamma-GTP,9 h,0.8 IU/L
same,TERMINAL_BW,24 h,218.9 g
same,APTT,24 h,17.6 s
same,Bas,24 h,0%
same,Eos,24 h,1%
same,Fbg,24 h,212 mg/dL
same,Hb,24 h,13.6 g/dL
same,Ht,24 h,40.3%
same,Lym,24 h,78.6%
same,MCH,24 h,22 pg
same,MCHC,24 h,33.8%
same,MCV,24 h,64.9 fL
same,Mono,24 h,3.8%
same,Neu,24 h,16%
same,PT,24 h,12.5 s
same,Plat,24 h,125.4 x10_4/uL
same,RBC,24 h,621.2 x10_4/ul
same,Ret,24 h,6.6%
same,WBC,24 h,79.6 x10_2/uL
same,KIDNEY_L,24 h,0.9 g
same,KIDNEY_R,24 h,1 g
same,KIDNEY_TOTAL,24 h,1.9 g
same,LIVER,24 h,10.7 g
same,A/G,24 h,1.7
same,ALP,24 h,981 IU/L
same,ALT,24 h,39 IU/L
same,AST,24 h,72.2 IU/L
same,BUN,24 h,13.8 mg/dL
same,CRE,24 h,0.4 mg/dL
same,Ca,24 h,10.4 mg/dL
same,Cl,24 h,104.6 meq/L
same,DBIL,24 h,0.094 mg/dL
same,GLC,24 h,205.6 mg/dL
same,IP,24 h,7.1 mg/dL
same,K,24 h,3.8 meq/L
same,LDH,24 h,155.2 IU/L
same,Na,24 h,141.8 meq/L
same,PL,24 h,146 mg/dL
same,RALB,24 h,3.5 g/dL
same,TBIL,24 h,0.2 mg/dL
same,TC,24 h,81.2 mg/dL
same,TG,24 h,83.4 mg/dL
same,TP,24 h,5.5 g/dL
same,gamma-GTP,24 h,1 IU/L
